Data taken from ChEMBL document CHEMBL4627352, “New acrylamide-sulfisoxazole conjugates as dihydropteroate synthase inhibitors” (Bioorg Med Chem, 2020).
≈ marks a conversion by molar mass, not a printed value. Calls of active or inactive are those of the source. No cut-off for these calls is given here.

Tests used:
[1] = test system: Syncephalastrum racemosum; test: Potency index, ratio of amphotericin B MIC to compound MIC for Syncephalastrum racemosum assessed as inhibition of DHPS-mediated fungal growth incubated for 48 hrs by microbroth dilution method
[2] = test system: Escherichia coli ATCC 25922; test: Inhibition of DHPS in Escherichia coli ATCC 25922 assessed as inhibition of bacterial growth incubated for 24 hrs in presence of folate dependent metabolite, methionine by microbroth dilution method
Streptococcus pneumoniae [3] = test: Inhibition of DHPS in Streptococcus pneumoniae assessed as antibacterial activity by measuring inhibition of bacterial growth incubated for 24 hrs by microbroth dilution method
Aspergillus fumigatus [4] = test: Inhibition of DHPS in Aspergillus fumigatus assessed as antifungal activity by measuring inhibition of fungal growth incubated for 48 hrs by microbroth dilution method
Geotrichum candidum [5] = test: Inhibition of DHPS in Geotrichum candidum assessed as antifungal activity by measuring inhibition zone at 5 mg/mL incubated for 48 hrs by disk diffusion method
[6] = test system: Syncephalastrum racemosum; test: Inhibition of DHPS in Syncephalastrum racemosum assessed as antifungal activity by measuring inhibition zone at 5 mg/mL incubated for 48 hrs by disk diffusion method
Klebsiella pneumoniae [7] = test: Potency index, ratio of sulfisoxazole MIC to compound MIC for Klebsiella pneumoniae assessed as inhibition of DHPS-mediated bacterial growth incubated for 24 hrs by microbroth dilution method
Klebsiella pneumoniae [8] = test: Inhibition of DHPS in Klebsiella pneumoniae assessed as antibacterial activity by measuring inhibition zone at 5 mg/mL incubated for 24 hrs by disk diffusion method
Escherichia coli [9] = test: Inhibition of DHPS in Escherichia coli assessed as antibacterial activity by measuring inhibition zone at 5 mg/mL incubated for 24 hrs by disk diffusion method
[10] = test system: Staphylococcus epidermidis; test: Inhibition of DHPS in Staphylococcus epidermidis assessed as antibacterial activity by measuring inhibition of bacterial growth incubated for 24 hrs by microbroth dilution method
[11] = test system: Staphylococcus epidermidis; test: Inhibition of DHPS in Staphylococcus epidermidis assessed as antibacterial activity by measuring inhibition zone at 5 mg/mL incubated for 24 hrs by disk diffusion method
[12] = test system: Escherichia coli ATCC 25922; test: Inhibition of DHPS in Escherichia coli ATCC 25922 assessed as inhibition of bacterial growth incubated for 24 hrs in presence of folate precursor, pABA by microbroth dilution method
Aspergillus fumigatus [13] = test: Potency index, ratio of sulfisoxazole MIC to compound MIC for Aspergillus fumigatus assessed as inhibition of DHPS-mediated fungal growth incubated for 48 hrs by microbroth dilution method
Streptococcus pneumoniae [14] = test: Inhibition of DHPS in Streptococcus pneumoniae assessed as antibacterial activity by measuring inhibition zone at 5 mg/mL incubated for 24 hrs by disk diffusion method
Bacillus subtilis [15] = test: Inhibition of DHPS in Bacillus subtilis assessed as antibacterial activity by measuring inhibition zone at 5 mg/mL incubated for 24 hrs by disk diffusion method
Geotrichum candidum [16] = test: Potency index, ratio of sulfisoxazole MIC to compound MIC for Geotrichum candidum assessed as inhibition of DHPS-mediated fungal growth incubated for 48 hrs by microbroth dilution method
Aspergillus fumigatus [17] = test: Inhibition of DHPS in Aspergillus fumigatus assessed as antifungal activity by measuring inhibition zone at 5 mg/mL incubated for 48 hrs by disk diffusion method
Bacillus subtilis [18] = test: Potency index, ratio of sulfisoxazole MIC to compound MIC for Bacillus subtilis assessed as inhibition of DHPS-mediated bacterial growth incubated for 24 hrs by microbroth dilution method
Geotrichum candidum [19] = test: Inhibition of DHPS in Geotrichum candidum assessed as antifungal activity by measuring inhibition of fungal growth incubated for 48 hrs by microbroth dilution method
[20] = test system: Syncephalastrum racemosum; test: Inhibition of DHPS in Syncephalastrum racemosum assessed as antifungal activity by measuring inhibition of fungal growth incubated for 48 hrs by microbroth dilution method
Escherichia coli [21] = test: Inhibition of DHPS in Escherichia coli assessed as antibacterial activity by measuring inhibition of bacterial growth incubated for 24 hrs by microbroth dilution method
Bacillus subtilis [22] = test: Inhibition of DHPS in Bacillus subtilis assessed as antibacterial activity by measuring inhibition of bacterial growth incubated for 24 hrs by microbroth dilution method
Proteus vulgaris [23] = test: Inhibition of DHPS in Proteus vulgaris assessed as antibacterial activity by measuring inhibition zone at 5 mg/mL incubated for 24 hrs by disk diffusion method
Klebsiella pneumoniae [24] = test: Inhibition of DHPS in Klebsiella pneumoniae assessed as antibacterial activity by measuring inhibition of bacterial growth incubated for 24 hrs by microbroth dilution method
[25] = test system: Staphylococcus epidermidis; test: Potency index, ratio of sulfisoxazole MIC to compound MIC for Staphylococcus epidermidis assessed as inhibition of DHPS-mediated bacterial growth incubated for 24 hrs by microbroth dilution method
Proteus vulgaris [26] = test: Inhibition of DHPS in Proteus vulgaris assessed as antibacterial activity by measuring inhibition of bacterial growth incubated for 24 hrs by microbroth dilution method
Escherichia coli [27] = test: Potency index, ratio of sulfisoxazole MIC to compound MIC for Escherichia coli assessed as inhibition of DHPS-mediated bacterial growth incubated for 24 hrs by microbroth dilution method
Streptococcus pneumoniae [28] = test: Potency index, ratio of sulfisoxazole MIC to compound MIC for Streptococcus pneumoniae assessed as inhibition of DHPS-mediated bacterial growth incubated for 24 hrs by microbroth dilution method

C=CCN/C(S)=C(/C#N)C(=O)Nc1ccc(S(=O)(=O)Nc2onc(C)c2C)cc1
Ratio [1]: 2 | inhibition [2]: inactive | MIC (Streptococcus pneumoniae [3]): 0.98 µg/mL (≈ 2.26 µM) | MIC (Aspergillus fumigatus [4]): 0.49 µg/mL (≈ 1.13 µM) | inhibition zone (IZ) (Geotrichum candidum [5]): 25.2 mm | inhibition zone (IZ) [6]: 20.4 mm | Ratio (Klebsiella pneumoniae [7]): 4 | inhibition zone (IZ) (Klebsiella pneumoniae [8]): 24.2 mm | inhibition zone (IZ) (Escherichia coli [9]): 21.2 mm | MIC [10]: 3.9 µg/mL (≈ 9 µM) | inhibition zone (IZ) [11]: 20.1 mm | inhibition [12]: inactive | Ratio (Aspergillus fumigatus [13]): 7 | inhibition zone (IZ) (Streptococcus pneumoniae [14]): 21.7 mm | inhibition zone (IZ) (Bacillus subtilis [15]): 23.8 mm | Ratio (Geotrichum candidum [16]): 6 | inhibition zone (IZ) (Aspergillus fumigatus [17]): 22.3 mm | Ratio (Bacillus subtilis [18]): 2 | MIC (Geotrichum candidum [19]): 0.24 µg/mL (≈ 0.554 µM) | MIC [20]: 3.9 µg/mL (≈ 9 µM) | MIC (Escherichia coli [21]): 1.95 µg/mL (≈ 4.5 µM) | MIC (Bacillus subtilis [22]): 0.49 µg/mL (≈ 1.13 µM) | inhibition zone (IZ) (Proteus vulgaris [23]): 20.1 mm | MIC (Klebsiella pneumoniae [24]): 0.49 µg/mL (≈ 1.13 µM) | Ratio [25]: 2 | MIC (Proteus vulgaris [26]): 3.9 µg/mL (≈ 9 µM)

CN/C(S[C@@H]1O[C@H](COC(C)=O)[C@@H](OC(C)=O)[C@H](OC(C)=O)[C@H]1OC(C)=O)=C(/C#N)C(=O)Nc1ccc(S(=O)(=O)Nc2onc(C)c2C)cc1
Ratio [1]: 1 | inhibition [2]: inactive | MIC (Streptococcus pneumoniae [3]): 0.98 µg/mL (≈ 1.33 µM) | MIC (Aspergillus fumigatus [4]): 3.9 µg/mL (≈ 5.29 µM) | Ratio (Escherichia coli [27]): 4 | inhibition zone (IZ) (Geotrichum candidum [5]): 21.2 mm | Ratio (Streptococcus pneumoniae [28]): 2 | inhibition zone (IZ) [6]: 19.9 mm | Ratio (Klebsiella pneumoniae [7]): 8 | inhibition zone (IZ) (Klebsiella pneumoniae [8]): 22.1 mm | inhibition zone (IZ) (Escherichia coli [9]): 20.2 mm | MIC [10]: 3.9 µg/mL (≈ 5.29 µM) | inhibition zone (IZ) [11]: 20.4 mm | inhibition [12]: inactive | Ratio (Aspergillus fumigatus [13]): 4 to 6 | inhibition zone (IZ) (Streptococcus pneumoniae [14]): 22.2 mm | inhibition zone (IZ) (Bacillus subtilis [15]): 23.4 mm | Ratio (Geotrichum candidum [16]): 3 to 5 | inhibition zone (IZ) (Aspergillus fumigatus [17]): 19.3 mm | MIC (Geotrichum candidum [19]): 1.95 µg/mL (≈ 2.64 µM) | MIC [20]: 3.9 µg/mL (≈ 5.29 µM) | MIC (Escherichia coli [21]): 3.9 µg/mL (≈ 5.29 µM) | MIC (Bacillus subtilis [22]): 0.98 µg/mL (≈ 1.33 µM) | inhibition zone (IZ) (Proteus vulgaris [23]): 17.8 mm | MIC (Klebsiella pneumoniae [24]): 0.98 µg/mL (≈ 1.33 µM) | Ratio [25]: 2 | MIC (Proteus vulgaris [26]): 7.81 µg/mL (≈ 10.6 µM)
